According to ChEMBL document CHEMBL5465560, “Selectivity Literature for EUbOPEN Chemogenomic Library” (2024):
Each block holds one compound with its values, some of them ahead of it.

Assays:
[1] = target: Activin receptor type-1-like (Homo sapiens) (UniProt P37023); assay: Selectivity interaction (KinomeScan (DiscoverX)) EUB0000655a ACVRL1; conditions: at 10 µM
[2] = target: T1, Serine/threonine-protein kinase Sgk3 (Homo sapiens) (UniProt Q96BR1); assay: Selectivity interaction (ActivX KiNativ screen (kinase selectivity in THP-1 cell lysates)) EUB0000639a SGK3; type: subcellular; conditions: lysate
T1 sequence (whole entry): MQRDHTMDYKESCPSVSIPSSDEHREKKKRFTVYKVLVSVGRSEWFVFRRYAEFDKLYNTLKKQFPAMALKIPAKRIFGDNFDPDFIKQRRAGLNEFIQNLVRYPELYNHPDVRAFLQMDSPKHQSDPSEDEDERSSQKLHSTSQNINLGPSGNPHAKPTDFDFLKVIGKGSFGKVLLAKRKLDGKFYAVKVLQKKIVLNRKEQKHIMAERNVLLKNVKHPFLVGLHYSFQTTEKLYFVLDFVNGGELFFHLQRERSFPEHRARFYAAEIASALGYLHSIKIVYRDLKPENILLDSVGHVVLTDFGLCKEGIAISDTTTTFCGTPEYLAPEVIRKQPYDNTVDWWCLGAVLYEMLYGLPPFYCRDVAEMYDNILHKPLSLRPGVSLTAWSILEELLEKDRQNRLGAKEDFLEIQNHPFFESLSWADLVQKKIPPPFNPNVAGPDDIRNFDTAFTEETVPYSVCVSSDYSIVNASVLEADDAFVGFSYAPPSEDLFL

[3] = target: T2, Phosphatidylinositol 3-kinase C2 domain-containing subunit gamma (Homo sapiens) (UniProt O75747); assay: Selectivity interaction (KinomeScan (DiscoverX)) EUB0001049a PIK3C2G; conditions: at 1 µM
T2 sequence (whole entry): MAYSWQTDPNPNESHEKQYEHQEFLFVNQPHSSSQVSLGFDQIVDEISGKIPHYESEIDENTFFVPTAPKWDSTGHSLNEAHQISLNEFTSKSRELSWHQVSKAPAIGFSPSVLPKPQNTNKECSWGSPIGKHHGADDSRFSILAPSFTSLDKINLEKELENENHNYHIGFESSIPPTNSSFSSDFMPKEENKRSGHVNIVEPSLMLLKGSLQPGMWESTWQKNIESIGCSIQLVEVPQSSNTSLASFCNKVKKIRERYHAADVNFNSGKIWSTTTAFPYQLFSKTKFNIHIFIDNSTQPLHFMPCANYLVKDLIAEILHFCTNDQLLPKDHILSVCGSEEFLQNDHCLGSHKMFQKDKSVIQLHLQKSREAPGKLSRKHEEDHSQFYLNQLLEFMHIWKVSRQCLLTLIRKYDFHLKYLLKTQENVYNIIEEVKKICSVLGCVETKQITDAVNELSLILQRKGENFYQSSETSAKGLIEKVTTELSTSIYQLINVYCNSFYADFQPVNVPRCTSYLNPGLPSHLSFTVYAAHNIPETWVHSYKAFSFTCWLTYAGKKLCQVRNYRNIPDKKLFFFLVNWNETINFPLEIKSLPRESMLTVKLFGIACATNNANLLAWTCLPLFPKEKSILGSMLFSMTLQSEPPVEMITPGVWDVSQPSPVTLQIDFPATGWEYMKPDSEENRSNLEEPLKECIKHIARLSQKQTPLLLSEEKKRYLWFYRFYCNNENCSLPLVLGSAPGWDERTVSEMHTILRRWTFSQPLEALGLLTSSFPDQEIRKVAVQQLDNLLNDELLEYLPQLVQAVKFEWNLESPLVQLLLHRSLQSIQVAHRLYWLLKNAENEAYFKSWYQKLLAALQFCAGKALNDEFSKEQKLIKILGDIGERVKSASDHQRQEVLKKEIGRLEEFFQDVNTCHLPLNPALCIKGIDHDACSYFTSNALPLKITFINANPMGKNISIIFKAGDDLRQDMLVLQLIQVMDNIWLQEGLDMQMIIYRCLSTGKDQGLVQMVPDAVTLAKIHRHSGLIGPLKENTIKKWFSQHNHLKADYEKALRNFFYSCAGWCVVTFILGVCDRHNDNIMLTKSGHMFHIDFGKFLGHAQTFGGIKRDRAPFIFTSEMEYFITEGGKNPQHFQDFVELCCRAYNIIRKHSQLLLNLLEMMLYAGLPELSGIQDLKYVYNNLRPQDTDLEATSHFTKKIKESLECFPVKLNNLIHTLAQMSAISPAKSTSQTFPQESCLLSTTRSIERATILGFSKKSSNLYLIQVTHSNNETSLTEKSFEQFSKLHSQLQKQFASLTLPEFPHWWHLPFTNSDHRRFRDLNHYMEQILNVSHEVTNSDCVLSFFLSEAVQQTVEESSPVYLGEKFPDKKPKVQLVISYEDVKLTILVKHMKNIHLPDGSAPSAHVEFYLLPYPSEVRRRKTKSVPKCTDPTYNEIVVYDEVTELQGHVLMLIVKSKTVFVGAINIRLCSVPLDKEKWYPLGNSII

[4] = target: Serine/threonine-protein kinase PRP4 homolog (Homo sapiens) (UniProt Q13523); assay: Selectivity interaction (KinomeScan (DiscoverX)) EUB0001049a PRPF4B; conditions: at 1 µM
Sequence of Serine/threonine-protein kinase PRP4 homolog (Homo sapiens) (Q13523 whole entry): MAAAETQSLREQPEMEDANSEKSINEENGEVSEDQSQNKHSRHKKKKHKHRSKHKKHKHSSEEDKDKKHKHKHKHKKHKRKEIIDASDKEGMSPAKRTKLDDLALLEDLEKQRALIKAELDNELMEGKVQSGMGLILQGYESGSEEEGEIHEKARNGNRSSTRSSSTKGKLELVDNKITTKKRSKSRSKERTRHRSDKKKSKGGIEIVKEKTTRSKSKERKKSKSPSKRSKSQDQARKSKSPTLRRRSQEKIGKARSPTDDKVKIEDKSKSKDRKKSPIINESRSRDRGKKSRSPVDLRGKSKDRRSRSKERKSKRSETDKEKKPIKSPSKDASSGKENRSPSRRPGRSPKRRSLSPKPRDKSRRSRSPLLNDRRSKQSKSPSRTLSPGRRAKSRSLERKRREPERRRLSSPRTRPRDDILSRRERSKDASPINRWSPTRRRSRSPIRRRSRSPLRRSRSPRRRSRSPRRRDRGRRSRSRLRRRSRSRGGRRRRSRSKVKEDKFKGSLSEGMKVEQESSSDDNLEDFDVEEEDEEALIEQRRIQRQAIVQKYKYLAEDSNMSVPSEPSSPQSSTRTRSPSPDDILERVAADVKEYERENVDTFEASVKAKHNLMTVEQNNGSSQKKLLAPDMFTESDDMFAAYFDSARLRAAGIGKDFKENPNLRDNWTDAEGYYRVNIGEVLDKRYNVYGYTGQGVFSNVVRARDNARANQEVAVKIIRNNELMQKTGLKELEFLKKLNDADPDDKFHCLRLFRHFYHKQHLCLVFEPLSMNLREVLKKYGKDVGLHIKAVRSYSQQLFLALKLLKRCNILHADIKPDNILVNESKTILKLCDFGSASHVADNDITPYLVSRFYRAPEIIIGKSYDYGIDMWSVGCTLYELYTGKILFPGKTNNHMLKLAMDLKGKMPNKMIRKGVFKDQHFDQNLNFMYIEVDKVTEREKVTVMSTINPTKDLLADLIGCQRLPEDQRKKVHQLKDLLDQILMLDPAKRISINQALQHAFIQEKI

Sequence of Activin receptor type-1-like (Homo sapiens) (P37023 whole entry): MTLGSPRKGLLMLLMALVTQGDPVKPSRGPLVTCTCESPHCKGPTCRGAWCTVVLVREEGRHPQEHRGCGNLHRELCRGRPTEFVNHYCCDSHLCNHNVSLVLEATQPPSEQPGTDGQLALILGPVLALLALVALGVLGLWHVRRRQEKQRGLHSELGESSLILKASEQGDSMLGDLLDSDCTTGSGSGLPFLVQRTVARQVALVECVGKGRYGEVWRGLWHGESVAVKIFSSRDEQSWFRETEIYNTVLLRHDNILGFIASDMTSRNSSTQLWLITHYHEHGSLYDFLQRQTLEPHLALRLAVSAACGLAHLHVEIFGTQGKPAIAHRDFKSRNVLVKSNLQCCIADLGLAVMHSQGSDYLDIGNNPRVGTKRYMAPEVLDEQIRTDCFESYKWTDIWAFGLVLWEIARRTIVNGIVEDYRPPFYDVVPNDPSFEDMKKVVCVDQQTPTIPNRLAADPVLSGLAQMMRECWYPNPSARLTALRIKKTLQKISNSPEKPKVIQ

SMILES: CN(C)CCOc1ccc(-c2nc(-c3ccncc3)c(-c3ccc4c(c3)CC/C4=N\O)[nH]2)cc1
% of control [1]: 67%

% of inhibition ([2]; at 0.01 µM): 51.3%
% of inhibition ([2]; at 0.04 µM): 6.7%
% of inhibition ([2]; at 0.2 µM): 7.4%
% of inhibition ([2]; at 1 µM): 18.9%
% of inhibition ([2]; at 5 µM): 25.3%
SMILES: CC[C@@H]1[C@H](F)C(=O)N[C@@H]1COc1nccc2cc(C(N)=O)c(OC)cc12 [ZIMLOVISERTIB]

SMILES: COc1cc(Nc2nc(C)cc(-c3cnn4nc(OC)ccc34)n2)cc(C(F)(F)F)c1
% of control [3]: 89%
% of control [4]: 100%
